Peptide text beside a SMILES is read from it.
Experiments:
Format in all cases: cell-based
PrRPR WT = molecular target: T1, PrRPR WT (Homo sapiens, UniProt P49683); assay: BRET2 Gq dissociation, WT; conditions: WT (reference for normalisation), Gq-coupling, AD293 cells; n = 3
T1 construct: expressed in transfected cells; host or cells: AD293 cells
T1 sequence (P49683 1-370): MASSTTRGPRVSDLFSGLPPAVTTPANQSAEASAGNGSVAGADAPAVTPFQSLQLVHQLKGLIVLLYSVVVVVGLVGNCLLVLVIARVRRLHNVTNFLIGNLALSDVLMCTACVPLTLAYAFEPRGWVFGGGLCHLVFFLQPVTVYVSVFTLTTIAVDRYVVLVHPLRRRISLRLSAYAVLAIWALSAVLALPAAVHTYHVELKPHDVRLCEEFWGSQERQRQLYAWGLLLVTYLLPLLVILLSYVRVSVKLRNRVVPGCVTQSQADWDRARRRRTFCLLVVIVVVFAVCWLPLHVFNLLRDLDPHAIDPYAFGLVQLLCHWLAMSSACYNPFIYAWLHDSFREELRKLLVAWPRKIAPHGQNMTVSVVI
Method: (§1) AD293 cells (Agilent) were propagated in Dulbecco’s Modified Eagle Medium (DMEM, Thermo Fisher Scientific), enriched with 10% fetal bovine serum (FBS, Thermo Fisher Scientific), and maintained at 37 °C in a 5% CO2 environment. Cells were then seeded in 6-well dishes at a density of 130,000–150,000 cells per mL and allowed to incubate overnight. On the next day, cells were transfected with plasmids at a 1:1:1:1 ratio for receptor:Gα-RLuc8:Gβ:Gγ-GFP2[52]. PEI MAX 40 K (BIOHUB) was utilized to form complex with the plasmids at a ratio of 3 µL PEI per µg of plasmids, in OptiMEM (Gibco-Thermo Fisher Scientific) at a concentration of 10 ng plasmids per µL OptiMEM. After 24 h of incubation, the culture was harvested by centrifugation with PBS. The cell suspension was then allocated into a white 384-well plate at a volume of 30 µL per well, followed by the addition of 10 µL of freshly prepared 50 µM coelenterazine 400a (Yeasen). […] Plates were subsequently read in a BioTek Synergy H1 microplate reader (BioTek) equipped with 395 nm (RLuc8-coelenterazine 400a) and 510 nm (GFP2) emission filters. BRET2 ratios were calculated as the ratio of the GFP2 emission to RLuc8 emission. […]
(§2) Supplementary Fig. S4 | Effects of mutations in the ligand-binding pocket and G protein intereface of Gq coupled PrRPR by BRET2 assay. […] BRET2 assay signals were measured after stimulation with PrRP20. […]

PrRPR C113A = molecular target: T2, PrRPR C113A (Homo sapiens, UniProt P49683, C113A); assay: BRET2 Gq dissociation, C113A; conditions: C113A (2.57), Gq-coupling, AD293 cells; mean ± S.E.M., n = 3; P 0.0007 vs WT; read-out: BRET2 pEC50 (converted)
T2 construct: expressed in transfected cells; host or cells: AD293 cells
T2 sequence (P49683 whole entry C113A): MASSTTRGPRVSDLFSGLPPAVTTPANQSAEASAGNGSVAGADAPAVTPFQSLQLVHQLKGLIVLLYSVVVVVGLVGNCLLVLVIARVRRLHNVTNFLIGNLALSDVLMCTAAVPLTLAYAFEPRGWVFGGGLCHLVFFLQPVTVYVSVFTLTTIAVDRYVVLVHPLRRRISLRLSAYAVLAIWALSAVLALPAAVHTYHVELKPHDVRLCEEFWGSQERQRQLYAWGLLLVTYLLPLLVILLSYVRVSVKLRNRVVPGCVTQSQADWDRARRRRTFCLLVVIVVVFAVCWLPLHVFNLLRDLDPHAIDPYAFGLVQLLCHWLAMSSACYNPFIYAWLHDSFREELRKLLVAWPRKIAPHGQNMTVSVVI
Method: as §1, §2

PrRPR T117A = molecular target: T3, PrRPR T117A (Homo sapiens, UniProt P49683, T117A); assay: BRET2 Gq dissociation, T117A; conditions: T117A (2.61), Gq-coupling, AD293 cells; mean ± S.E.M., n = 3; P <0.0001 vs WT; read-out: BRET2 pEC50 (converted)
T3 construct: expressed in transfected cells; host or cells: AD293 cells
T3 sequence (P49683 whole entry T117A): as the sequence (P49683 whole entry C113A) above, with A113C, T117A counted along it
Method: as §1, §2

PrRPR Q141A = molecular target: T4, PrRPR Q141A (Homo sapiens, UniProt P49683, Q141A); assay: BRET2 Gq dissociation, Q141A; conditions: Q141A (3.32), Gq-coupling, AD293 cells; mean ± S.E.M., n = 3; P 0.0059 vs WT; read-out: BRET2 pEC50 (converted)
T4 construct: expressed in transfected cells; host or cells: AD293 cells
T4 sequence (P49683 whole entry Q141A): as the sequence (P49683 whole entry C113A) above, with A113C, Q141A counted along it
Method: as §1, §2

PrRPR E212A [1] = molecular target: T5, PrRPR E212A (Homo sapiens, UniProt P49683, E212A); assay: BRET2 Gq dissociation, E212A; conditions: E212A (45.51), Gq-coupling, AD293 cells; mean ± S.E.M., n = 3; P <0.0001 vs WT; read-out: BRET2 pEC50 (converted)
T5 construct: expressed in transfected cells; host or cells: AD293 cells
T5 sequence (P49683 whole entry E212A): as the sequence (P49683 whole entry C113A) above, with A113C, E212A counted along it
Method: as §1, §2

PrRPR V145A = molecular target: T6, PrRPR V145A (Homo sapiens, UniProt P49683, V145A); assay: BRET2 Gi dissociation, V145A; conditions: V145A (3.36), Gi-coupling, AD293 cells; mean ± S.E.M., n = 3; P 0.9852 vs WT; read-out: BRET2 pEC50 (converted)
T6 construct: expressed in transfected cells; host or cells: AD293 cells
T6 sequence (P49683 whole entry V145A): as the sequence (P49683 whole entry C113A) above, with A113C, V145A counted along it
Method: (§3) AD293 cells (Agilent) were propagated in Dulbecco’s Modified Eagle Medium (DMEM, Thermo Fisher Scientific), enriched with 10% fetal bovine serum (FBS, Thermo Fisher Scientific), and maintained at 37 °C in a 5% CO2 environment. Cells were then seeded in 6-well dishes at a density of 130,000–150,000 cells per mL and allowed to incubate overnight. On the next day, cells were transfected with plasmids at a 1:1:1:1 ratio for receptor:Gα-RLuc8:Gβ:Gγ-GFP2[52]. PEI MAX 40 K (BIOHUB) was utilized to form complex with the plasmids at a ratio of 3 µL PEI per µg of plasmids, in OptiMEM (Gibco-Thermo Fisher Scientific) at a concentration of 10 ng plasmids per µL OptiMEM. After 24 h of incubation, the culture was harvested by centrifugation with PBS. The cell suspension was then allocated into a white 384-well plate at a volume of 30 µL per well, followed by the addition of 10 µL of freshly prepared 50 µM coelenterazine 400a (Yeasen). Following a 15-min equilibration period, cells were treated with 10 µL of ligand for an additional 5 min. Plates were subsequently read in a BioTek Synergy H1 microplate reader (BioTek) equipped with 395 nm (RLuc8-coelenterazine 400a) and 510 nm (GFP2) emission filters. BRET2 ratios were calculated as the ratio of the GFP2 emission to RLuc8 emission. Data were normalized to the baseline response of the ligand. […]

PrRPR E212A [2] = molecular target: T5, PrRPR E212A; assay: BRET2 Gi dissociation, E212A; conditions: E212A (45.51), Gi-coupling, AD293 cells; mean ± S.E.M., n = 3; P <0.0001 vs WT; read-out: BRET2 pEC50 (converted)
Method: as §3

CC[C@H](C)[C@H](NC(=O)CNC(=O)[C@H](CCCNC(=N)N)NC(=O)[C@H](CO)NC(=O)[C@H](C)NC(=O)[C@H](Cc1ccc(O)cc1)NC(=O)[C@H](Cc1c[nH]c2ccccc12)NC(=O)[C@H](C)NC(=O)[C@@H]1CCCN1C(=O)[C@H](CC(N)=O)NC(=O)[C@@H](NC(=O)[C@H](CC(=O)O)NC(=O)[C@@H]1CCCN1C(=O)[C@@H](N)[C@@H](C)O)[C@@H](C)CC)C(=O)N[C@@H](CCCNC(=N)N)C(=O)N1CCC[C@H]1C(=O)N[C@H](C(=O)NCC(=O)N[C@@H](CCCNC(=N)N)C(=O)N[C@@H](Cc1ccccc1)C(N)=O)C(C)C [PrRP20] (H-TPDINPAWYASRGIRPVGRF-NH2)
BRET2 span (PrRPR WT): 100.00 %WT
EC50 (PrRPR C113A): 3.39 nM
EC50 (PrRPR T117A): 107 nM
EC50 (PrRPR Q141A): 3.02 nM
EC50 (PrRPR E212A [1]): 28.8 nM
EC50 (PrRPR V145A): 2.63 nM
EC50 (PrRPR E212A [2]): 398 nM

— paper PMC11369081, “Molecular mechanism of prolactin-releasing peptide recognition and signaling via its G protein-coupled receptor” (Cell Discovery, 2024)
